The numbers were not newly measured in patent publication US20060251786A1 (priority 2005, published 2006), which cites them from elsewhere.

The conditions of this data set: scale of 1-6; Gosselin et al., 5th ed, 1984.

The structures appear in SMILES notation.

Regarding `O=c1ccc2ccccc2o1` [coumarin, 1,2-benzopyrone], the toxicity level is on record as 4.
With `CN1CCCC1c1cccnc1` (centres unmarked) [nicotine], the toxicity level is listed as 6.
